Test [1] has as its system green peach aphid (Myzus persicae). As to the kind of experiment: whole plant or invertebrate. The class given is in vivo. To be noted: 120 h, MYZUPE oral, 0.16 ppm, 5 dat (Table 3), read-out: % Efficacy. The method, then:
Solvent: 100 parts by weight acetone
To produce a suitable preparation of active compound, 1 part by weight of active compound is mixed with the stated amount of solvent, and the concentrate is diluted with water to the desired concentration.
50 μL compound solution is filled in microtiter plates and 150 μL IPL41 insect medium (33%+15% sugar) is added to obtain a total volume of 200 μL per well. Afterwards the plates are sealed with parafilm through which a mixed population of the green peach aphid (Myzus persicae) can suck on the compound preparation.
After 5 days mortality in % is determined. 100% means all aphids have been killed and 0% means none of the aphids have been killed.
Myzus persicae—Oral Test (MYZUPE Oral)

For test [2], the system named is fall armyworm larvae (Spodoptera frugiperda). As to the kind of experiment: whole plant or invertebrate. The class given is in vivo. The settings on record: 168 h, SPODFR, 20 g ai/ha, 7 dat (Table 3), read-out: % Efficacy. Summed up:
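Maize leaf sections sprayed with compound in acetone/DMF with alkylarylpolyglycol ether emulsifier diluted in water, then infested with fall armyworm larvae once dry. Mortality (%) scored after 7 days; 100% = all caterpillars killed.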

As to `C[C@H](NC(=O)c1cc(Cl)cc(S(C)(=O)=O)c1)c1ncnn1-c1ccncn1` [I-146 Known from WO 2019197468, reference compound], the Emax at 0.16 ppm in test [1] came out at 0%. In addition, the Emax at 20 g/ha in test [2] came out at 33%.

In the case of `C[C@H](NC(=O)c1cc(Cl)cc(S(C)(=O)=O)c1)c1ncnn1-c1cc(C#N)ccn1` [I-148 Known from WO 2019197468, reference compound], in test [1], the Emax at 0.16 ppm is 0%. In addition, in test [2], the Emax at 20 g/ha turned out to be 33%.

(Values after patent US12612386B2, “Heteroaryl-triazole compounds as pesticides” (Bayer Aktiengesellschaft, priority 2020, dated 2026).)
